Measurements reported in patent US20070123592A1, “Terephthalamide peptidomimetic compounds and methods” (YALE UNIVERSITY, priority 2004, published 2007).
Where “and” joins values, the source holds several entries; their conditions need not be identical. Equal entries are not always repeated.

Columns and labels:
Bcl-xL/Bak complex = biological target: T1, Bcl-xL/Bak complex (Homo sapiens, UniProt Q07817); assay: Fluorescence polarization competition assay (displacement of fluorescein-labeled Bak peptide from Bcl-xL); assay type: binding; details: for Ki / K1 ± S.D.: 15 nM Fl-Bak, 184 nM Bcl-xL, 10 mM PBS pH 7.4, 25° C., mean of three independent experiments; for Ki: read-out: K1 ± S.D.; for affinity / activity in disrupting the Bcl-xL/Bak interaction (in words): summary of Table 1
T1 construct: made in house
Experimental: Fluorescence polarization experiments were conducted on a Photon Technology International instrument using a 0.3 cm path length cuvette.

15N-labeled Bcl-xL = 15N-labeled Bcl-xL (Homo sapiens, UniProt Q07817); assay: (15N,1H)-2D-HSQC amide chemical shift perturbation mapping; assay type: binding; details: 2 mM Bcl-xL, 0, 1, 2 mM compound, 10% DMSO/D2O, 25° C., PBS pH 7.0
Experimental: (^15N, ^1H)-2D-HSQC spectra were recorded on a Varian DPX-600 spectrometer. The concentration of Bcl-xL was 2 mM, with 0, 1 mM, 2 mM 3-26, respectively, in 10% DMSO/D2O (25° C., 10.0 mM PBS, pH 7.0).
To structurally probe the binding mode of the terephthalamide, (^15N, ^1H)-2D-amide chemical shift perturbation mapping with ^15N-labeled Bcl-xL were performed as above. Addition of compound 3-26 led to shifts in a number of residues on the surface of Bcl-xL. […] These affected residues all lie in the shallow cleft on the protein into which the Bak helix binds.

T1 sequence (Q07817 whole entry, species assumed, one chain of several): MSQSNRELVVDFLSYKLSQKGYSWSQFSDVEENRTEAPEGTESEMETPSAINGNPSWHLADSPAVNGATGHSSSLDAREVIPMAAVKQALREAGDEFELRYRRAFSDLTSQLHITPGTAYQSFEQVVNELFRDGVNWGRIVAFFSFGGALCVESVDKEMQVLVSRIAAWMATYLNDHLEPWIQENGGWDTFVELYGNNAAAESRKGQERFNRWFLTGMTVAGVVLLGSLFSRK
Sequence of 15N-labeled Bcl-xL (Q07817 whole entry): as the sequence (Q07817 whole entry, species assumed, one chain of several) above

Row | SMILES | Ki (Bcl-xL/Bak complex) | affinity / activity in disrupting the Bcl-xL/Bak interaction (in words) (Bcl-xL/Bak complex) | other results
1 | COC(=O)[C@H](CC(C)C)NC(=O)c1ccc(C(=O)N(C(C)C)C(C)C)cc1OC(C)C [Compound 3-9, (S)-2-(4-Diisopropylcarbamoyl-2-isopropoxy-benzoylamino)-4-methyl-pentanoic acid methyl ester] | 0.78 µM and 0.781 µM | low micro-molar Ki values | 
2 | CC(C)C[C@H](NC(=O)c1ccc(C(=O)N(C(C)C)C(C)C)cc1NC(C)C)C(=O)O [Compound 3-17, (S)-2-(4-Diisopropylcarbamoyl-2-isopropylamino-benzoylamino)-4-methyl-pentanoic acid] | 3.31 ± 0.345 µM |  | affinity less than 2-isopropoxy analogue 3-10 (Bcl-xL/Bak complex; relative to 3-10): 4 fold
3 | COC(=O)[C@H](CC(C)C)NC(=O)c1ccc(C(=O)N(CC(C)C)[C@@H](C)C(=O)OC)cc1OC(C)C [Compound 3-22, (S)-2-{4-[Isobutyl-((S)-1-methoxycarbonyl-ethyl)-carbamoyl]-2-isopropoxy-benzoylamino}-4-methyl-pentanoic acid methyl ester] |  | did not show activity | K1 ± S.D. (Bcl-xL/Bak complex): No affinity
4 | COC(=O)[C@H](CC(C)C)NC(=O)c1ccc(C(=O)N(C(C)C)C(C)C)cc1OC [Compound 3-26, (S)-2-(4-Diisopropylcarbamoyl-2-methoxy-benzoylamino)-4-methyl-pentanoic acid methyl ester] | 1.85 ± 0.318 µM |  | amide chemical shift changes of Bcl-xL residues on addition of inhibitor (15N-labeled Bcl-xL): significant chemical shift changes
5 | CC(C)Oc1cc(C(=O)N(C)C)ccc1C(=O)N[C@@H](Cc1ccccc1)C(=O)O [Compound 3-35, (S)-2-(4-Dimethylcarbamoyl-2-isopropoxy-benzoylamino)-3-phenyl-propionic acid] | 8.92 ± 3.59 µM |  | 
6 | CCN(CC)C(=O)c1ccc(C(=O)N[C@@H](CC(C)C)C(=O)OC)c(OC(C)C)c1 [Compound 3-38, (S)-2-(4-Diethylcarbamoyl-2-isopropoxy-benzoylamino)-4-methyl-pentanoic acid methyl ester] | 11.4 ± 5.09 µM |  | 
7 | COC(=O)[C@H](C)NC(=O)c1ccc(C(=O)N(CC(C)C)CC(C)C)cc1OC(C)C [Compound 3-39, (S)-2-(4-Diisobutylcarbamoyl-2isopropoxy-benzoylamino)-propionic acid methyl ester] | 8.76 ± 2.78 µM |  | 
8 | COC(=O)[C@@H](NC(=O)c1ccc(C(=O)N(CC(C)C)CC(C)C)cc1OC(C)C)C(C)C [Compound 3-41, (S)-2-(4-Diisobutylcarbamoyl-2-isopropoxy-benzoylamino)-3-methyl-butyric acid methyl ester] | 138 ± 49.5 µM |  | 
9 | CC(C)Oc1cc(C(=O)N(c2ccccc2)c2ccccc2)ccc1C(=O)N[C@@H](C)C(=O)O [Compound 3-42, (S)-2-(4-Diphenylcarbamoyl-2-isopropoxy-benzoylamino)-propionic acid] | 260 ± 58 µM | most of the affinity was lost | 
10 | CC(C)C[C@H](NC(=O)c1ccc(C(=O)N(c2ccccc2)c2ccccc2)cc1OC(C)C)C(=O)O [Compound 3-43, (S)-2-(4-Diphenylcarbamoyl-2-isopropoxy-benzoylamino)-4-methyl-pentanoic acid] | 780 ± 174 µM | most of the affinity was lost | 
11 | CC(C)CC(NC(=O)c1ccc(C(=O)NCC(=O)O)cc1O)C(=O)O (centres unmarked) [Compound 3-46] |  |  | K1 ± S.D. (Bcl-xL/Bak complex): No affinity

Second part, led by results:

Row | Ki (Bcl-xL/Bak complex) | affinity / activity in disrupting the Bcl-xL/Bak interaction (in words) (Bcl-xL/Bak complex) | SMILES | other results
12 | 0.839 ± 0.171 µM |  | CC(C)C[C@H](NC(=O)c1ccc(C(=O)N(C(C)C)C(C)C)cc1OC(C)C)C(=O)O [Compound 3-10] | 
13 | 8.34 ± 1.61 µM |  | COC(=O)[C@H](C)NC(=O)c1ccc(C(=O)N(C)C)cc1OC(C)C [Compound 3-33, (S)-2-(4-Dimethylcarbamoyl-2-isopropoxy-benzoylamino)-propionic acid methyl ester] | 
14 | 2.44 ± 0.947 µM | low micro-molar Ki values | CCN(CC)C(=O)c1ccc(C(=O)N[C@@H](C)C(=O)OC)c(OC(C)C)c1 [Compound 3-37, (S)-2-(4-Diethylcarbamoyl-2-isopropoxy-benzoylamino)-propionic acid methyl ester] | 
15 | 8.36 ± 3.8 µM |  | COC(=O)[C@H](CC(C)C)NC(=O)c1ccc(C(=O)N(CC(C)C)CC(C)C)cc1OC(C)C [Compound 3-40, (S)-2-(4-Diisobutylcarbamoyl-2-isopropoxy-benzoylamino)-4-methyl-pentanoic acid methyl ester] | 
16 |  | most of the affinity was lost | COC(=O)[C@H](CC(C)C)NC(=O)c1ccc(C(=O)N(c2ccccc2)c2ccccc2)cc1OC(C)C [Compound 3-44, (S)-2-(4-Diphenylcarbamoyl-2-isopropoxy-benzoylamino)-4-methyl-pentanoic acid methyl ester] | K1 ± S.D. (Bcl-xL/Bak complex): No affinity
17 |  | most of the affinity was lost | CC(C)Oc1cc(C(=O)N(c2ccccc2)c2ccccc2)ccc1C(=O)N[C@@H](Cc1ccccc1)C(=O)O [Compound 3-45, (S)-2-(4-Diphenylcarbamoyl-2-isopropoxy-benzoylamino)-3-phenyl-propionic acid] | K1 ± S.D. (Bcl-xL/Bak complex): No affinity
